Reference: PubChem BioAssay AID2060503 (Molecular Pharmacology Branch, DTP, NCI, 2025)
“And” between values parts separate entries of the source, which are not always exact repeats. Identical values can stand only once. Each block holds one molecule with its values, some of them ahead of it.

System: 817829-284-R-J1-PDC complex spheroids, viability
Assay: Anticancer human tumor 817829-284-R-J1-PDC patient-derived colon adenocarcinoma cell line growth inhibition [GQUAD]
Conditions: for viability, T/C: stronger effect = lower value
Text: DNA G-quadruplex Stabilizer Agents in Combinations in Complex Spheroids
A high-throughput screen of multi-cell type tumor spheroids was designed to identify active combinations of DNA G-quadruplex stabilizer agents and targeted small molecules. Complex spheroids include a stromal component modeled by human endothelial cells (HUVEC) and fibroblasts modeled by human mesenchymal stem cells (MSCs). The concentration ranges selected for each drug and investigational agent were based upon clinically achievable concentrations if the clinical Cmax of the agent was known.
Compounds. The drugs and investigational agents: pidnarulex (CX-5461; NSC782164), APTO-253 (NSC789042), BRACO-19 (NSC847499), peposertib (NSC802822), ceralasertib (NSC780249), elimusertib (NSC800525), camonsertib (NSC841442), AZD-1390 (NSC803789), olaparib (NSC753686), talazoparib (NSC767125), ART-558 (NSC835418), sotorasib (NSC818433), MRTX-1133 (NSC836407), SN-38 (NSC673596), topotecan (NSC609699), etoposide (NSC141540), doxorubicin (NSC123127), gemcitabine (NSC613327), 5-fluorouracil (NSC19893), paclitaxel (NSC125973), vemurafenib (NSC761431), panobinostat (NSC761190), R-306465 (JNJ-16241199; NSC773264), adavosertib (NSC754352), TP-3654 (NSC805149), carboplatin (NSC241240), KSQ-4279 (NSC840948), and staurosporine (NSC755774) were obtained from the National Cancer Institute (NCI) Developmental Therapeutics Program Chemical Repository (34). The FDA-approved anticancer drug set is available from the NCI Developmental Therapeutics Program. […] The stock solutions were prepared in dimethyl sulfoxide (DMSO, Sigma-Aldrich, St. Louis, MO, cat. D2650) at 800-fold the tested concentration and stored at -70 degrees C prior to their use. All drugs and investigational agents were tested over a range starting from a high concentration at or near the clinical Cmax and decreasing in half-log increments. If the clinical Cmax for an agent had not been determined, the highest concentration tested was 10 microM.
2.3 Cell Culture. All cells were maintained in an incubator at 37 degrees C and 5% CO2 with 95% humidity. The PDC lines were cultured according to standard operating procedures established by the NCI PDMR. All PDCs were thawed and cultured in Matrigel-coated flasks prepared with a working solution of 1X Ham's F-12 nutrient mix, without supplementation (Invitrogen, cat. 11765054), 100 U/mL penicillin-streptomycin (Invitrogen, cat. 15140122), and 2.5% Matrigel (Corning Inc., cat. 354248) for the first three passages. The 857933-349-R-J2-PDC line was cultured in 6C/Colon 1B media, which includes advanced DMEM/F-12 (Thermo Fisher Scientific, cat. 12634028), 10 mM HEPES (Thermo Fisher Scientific, cat. 15630080), 1X GlutaMAX supplement (Thermo Fisher Scientific, cat. 35050061), 0.1 mg/mL primocin (InvivoGen, cat. ant-pm-2), 10% defined fetal bovine serum, heat inactivated (HyClone Laboratories Inc., cat. SH30070.03HI), 50% L-WRN conditioned media (ATCC, cat. CRL-3276), 1.25 mM N-Acetyl-L-cysteine (Sigma-Aldrich, cat. A9165), 10 mM nicotinamide (Sigma-Aldrich, cat. N0636), 1X B-27 supplement (Thermo Fisher Scientific, cat. 17504044), 1X N-2 supplement (Thermo Fisher Scientific, cat. 17502048), 10 microM Y-27632 dihydrochloride (Tocris Bioscience, cat. 1254), and 50 ng/mL human EGF recombinant protein (Thermo Fisher Scientific, cat. PHG0311). The 485176-168-R4-J1-PDC line was cultured in Panc media, which includes all 6C/Colon 1B media components plus 100 ng/mL human FGF-10 (Thermo Fisher Scientific, cat. 100-26), 500 nM SB-431542 (Selleckchem, cat. S1067), and gastrin (Tocris, cat. 3006).
[…]

[1] = curve of first compound, second compound 0.0316 µM
[2] = curve of first compound, second compound 0.1 µM
[3] = curve of first compound, second compound 0.316 µM
[4] = curve of first compound, second compound 1 µM
[5] = curve of first compound, second compound 3.16 µM
[6] = curve of first compound, second compound 10 µM
[7] = second compound 0.0316 µM, first compound 0.0316 µM
[8] = second compound 0.0316 µM, first compound 0.1 µM
[9] = second compound 0.0316 µM, first compound 0.316 µM
[10] = second compound 0.0316 µM, first compound 1 µM
[11] = second compound 0.0316 µM, first compound 3.16 µM
[12] = second compound 0.0316 µM, first compound 10 µM
[13] = second compound 0.1 µM, first compound 0.0316 µM
[14] = second compound 0.1 µM, first compound 0.1 µM
[15] = second compound 0.1 µM, first compound 0.316 µM
[16] = second compound 0.1 µM, first compound 1 µM
[17] = second compound 0.1 µM, first compound 3.16 µM
[18] = second compound 0.1 µM, first compound 10 µM
[19] = second compound 0.316 µM, first compound 0.0316 µM
[20] = second compound 0.316 µM, first compound 0.1 µM
[21] = second compound 0.316 µM, first compound 0.316 µM
[22] = second compound 0.316 µM, first compound 1 µM
[23] = second compound 0.316 µM, first compound 3.16 µM
[24] = second compound 0.316 µM, first compound 10 µM
[25] = second compound 1 µM, first compound 0.0316 µM
[26] = second compound 1 µM, first compound 0.1 µM
[27] = second compound 1 µM, first compound 0.316 µM
[28] = second compound 1 µM, first compound 1 µM
[29] = second compound 1 µM, first compound 3.16 µM
[30] = second compound 1 µM, first compound 10 µM
[31] = second compound 3.16 µM, first compound 0.0316 µM
[32] = second compound 3.16 µM, first compound 0.1 µM
[33] = second compound 3.16 µM, first compound 0.316 µM
[34] = second compound 3.16 µM, first compound 1 µM
[35] = second compound 3.16 µM, first compound 3.16 µM
[36] = second compound 3.16 µM, first compound 10 µM
[37] = second compound 10 µM, first compound 0.0316 µM
[38] = second compound 10 µM, first compound 0.1 µM
[39] = second compound 10 µM, first compound 0.316 µM
[40] = second compound 10 µM, first compound 1 µM
[41] = second compound 10 µM, first compound 3.16 µM
[42] = second compound 10 µM, first compound 10 µM
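Also: spheroids exposed to agents for 7 days before readout.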
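For viability, T/C in this document: percent viability relative to DMSO vehicle control taken as 100%.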

Compound: O=c1[nH]cc(F)c(=O)[nH]1 + Cc1cnc(CNC(=O)c2c(=O)c3ccc(N4CCCN(C)CC4)nc3n3c2sc2ccccc23)cn1
IC50 [1]: 799 nM
IC50 [2]: < 31.6 nM
IC50 [3]: < 31.6 nM
IC50 [4]: < 31.6 nM
IC50 [5]: < 31.6 nM
IC50 [6]: < 31.6 nM
viability, T/C [7]: 91.4%
viability, T/C [8]: 75.3%
viability, T/C [9]: 77.6%
viability, T/C [10]: 43%
viability, T/C [11]: 37.6%
viability, T/C [12]: 33%
viability, T/C [13]: 29.9%
viability, T/C [14]: 41.6%
viability, T/C [15]: 34.2%
viability, T/C [16]: 35.5%
viability, T/C [17]: 29.1%
viability, T/C [18]: 25.7%
viability, T/C [19]: 25.3%
viability, T/C [20]: 27.6%
viability, T/C [21]: 32.9%
viability, T/C [22]: 26.8%
viability, T/C [23]: 26.7%
viability, T/C [24]: 23.3%
viability, T/C [25]: 22.8%
viability, T/C [26]: 22.4%
viability, T/C [27]: 23.5%
viability, T/C [28]: 24.8%
viability, T/C [29]: 22.9%
viability, T/C [30]: 21.4%
viability, T/C [31]: 21.8%
viability, T/C [32]: 21.2%
viability, T/C [33]: 19.6%
viability, T/C [34]: 19.5%
viability, T/C [35]: 20.1%
viability, T/C [36]: 18%
viability, T/C [37]: 0.08%
viability, T/C [38]: 0.13%
viability, T/C [39]: 0.17%
viability, T/C [40]: 0.14%
viability, T/C [41]: 0.19%
viability, T/C [42]: 0.16%

Compound: CC1COCCN1c1cc(C2(O)CC3CCC(C2)O3)c2cnn(-c3ccn[nH]3)c2n1 (stereo not given) + Cc1[nH]c2ccc(F)cc2c1-c1nc2c3cccnc3c3ncccc3c2[nH]1
IC50 [1]: < 31.6 nM
IC50 [2]: < 31.6 nM
IC50 [3]: < 31.6 nM
IC50 [4]: < 31.6 nM
IC50 [5]: < 31.6 nM
IC50 [6]: < 31.6 nM
viability, T/C [7]: 40.4%
viability, T/C [8]: 9.87%
viability, T/C [9]: 7.43%
viability, T/C [10]: 5.2%
viability, T/C [11]: 5.12%
viability, T/C [12]: 3.63%
viability, T/C [13]: 32%
viability, T/C [14]: 12.5%
viability, T/C [15]: 7.69%
viability, T/C [16]: 6.04%
viability, T/C [17]: 5.1%
viability, T/C [18]: 3.62%
viability, T/C [19]: 28.5%
viability, T/C [20]: 13.2%
viability, T/C [21]: 6.99%
viability, T/C [22]: 5.84%
viability, T/C [23]: 5.13%
viability, T/C [24]: 3.71%
viability, T/C [25]: 30.4%
viability, T/C [26]: 11.7%
viability, T/C [27]: 7.32%
viability, T/C [28]: 6.4%
viability, T/C [29]: 4.91%
viability, T/C [30]: 3.49%
viability, T/C [31]: 19.1%
viability, T/C [32]: 6.27%
viability, T/C [33]: 4.26%
viability, T/C [34]: 3.69%
viability, T/C [35]: 3.38%
viability, T/C [36]: 1.97%
viability, T/C [37]: 6.89%
viability, T/C [38]: 2.8%
viability, T/C [39]: 4.24%
viability, T/C [40]: 2.85%
viability, T/C [41]: 2.85%
viability, T/C [42]: 1.69%

More lines, main results first:

IC50 [1]: 44.8 nM
IC50 [2]: < 31.6 nM
IC50 [3]: < 31.6 nM
IC50 [4]: < 31.6 nM
IC50 [5]: < 31.6 nM
IC50 [6]: < 31.6 nM
Compound: CCCS(=O)(=O)Nc1ccc(F)c(C(=O)c2c[nH]c3ncc(-c4ccc(Cl)cc4)cc23)c1F + Cc1cnc(CNC(=O)c2c(=O)c3ccc(N4CCCN(C)CC4)nc3n3c2sc2ccccc23)cn1
viability, T/C [7]: 57.4%
viability, T/C [8]: 33.9%
viability, T/C [9]: 34.4%
viability, T/C [10]: 28.3%
viability, T/C [11]: 30.9%
viability, T/C [12]: 11.8%
viability, T/C [13]: 20.7%
viability, T/C [14]: 21.9%
viability, T/C [15]: 15.6%
viability, T/C [16]: 14.8%
viability, T/C [17]: 12.5%
viability, T/C [18]: 10.2%
viability, T/C [19]: 19.2%
viability, T/C [20]: 20%
viability, T/C [21]: 17.1%
viability, T/C [22]: 16.7%
viability, T/C [23]: 15.7%
viability, T/C [24]: 10.7%
viability, T/C [25]: 16.7%
viability, T/C [26]: 19.7%
viability, T/C [27]: 18.6%
viability, T/C [28]: 14.5%
viability, T/C [29]: 14.5%
viability, T/C [30]: 6.86%
viability, T/C [31]: 18%
viability, T/C [32]: 17.4%
viability, T/C [33]: 15.1%
viability, T/C [34]: 12.9%
viability, T/C [35]: 12.2%
viability, T/C [36]: 2.83%
viability, T/C [37]: 0.09%
viability, T/C [38]: 0.13%
viability, T/C [39]: 0.17%
viability, T/C [40]: 0.16%
viability, T/C [41]: 0.17%
viability, T/C [42]: 0.17%

IC50 (curve of compound): > 10000 nM
Compound: C#Cc1c(F)ccc2cc(O)cc(-c3ncc4c(N5CC6CCC(C5)N6)nc(OCC56CCCN5CC(F)C6)nc4c3F)c12 (stereo not given)
viability, T/C (compound 0.0316 µM): 103% and 97.4% and 94.3%
viability, T/C (compound 0.1 µM): 88.4% and 96.9% and 109%
viability, T/C (compound 0.316 µM): 99.2% and 102% and 103%
viability, T/C (compound 1 µM): 84.3% and 102% and 93.9%
viability, T/C (compound 3.16 µM): 110% and 95.8% and 102%
viability, T/C (compound 10 µM): 114% and 104% and 131%

IC50 (curve of compound): > 10000 nM
Compound: Cc1cccc(N(C)C(=O)C2C(O)CCN2c2nc(C)cc(C(F)(F)F)c2C#N)c1 (stereo not given)
viability, T/C (compound 0.0316 µM): 94.3% and 102% and 95.3%
viability, T/C (compound 0.1 µM): 97.8% and 81.6% and 93.5%
viability, T/C (compound 0.316 µM): 92.5% and 107% and 96.8%
viability, T/C (compound 1 µM): 88.1% and 99% and 82.6%
viability, T/C (compound 3.16 µM): 92.4% and 88.4% and 96.7%
viability, T/C (compound 10 µM): 96.7% and 83.4% and 98.1%
